The nature of series [1]: Hydrolysis rate / drug release rate of the compounds (release of JAK inhibitor, HPLC). The settings on record: % release of JAK inhibitor from sample in acetonitrile/water=7/3 (v/v), 37° C. constant temperature shaker, sampled days 1-4, HPLC. The format is physicochemical. In outline: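 Compounds (about 5 mg per 20 mL) were dissolved in acetonitrile/water 7/3 (v/v) and held sealed at 37° C in a shaker, sampled on days 0, 1, 2, 3 and 4. Released JAK inhibitor was quantified by HPLC peak area against a 0.0002–0.08 mg/mL reference curve and expressed as % release corrected for molecular weights.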

The test system of series [2] is IMQ-induced psoriasis mouse model. The series can be described thus: IMQ-induced psoriasis mouse model, PASI score of compound ointments applied to skin. The format is in vivo. The following applies: ointment 20 mg/g, 50 mg, skin smear BID, day 1 to day 9; BALB/c mice, 5% IMQ cream; Two-way ANOVA p<0.05. On the procedure:
Efficacy Evaluation Study of Ointment Transdermal Patch Formulated by Compounds Using IMQ-Induced Psoriasis Mouse Model
BALB/c mice (male) aged 6-8 weeks were selected to have depilated back skin with an area of 2×3 cm. 5% IMQ cream 62.5 mg was applied once a day for 9 consecutive days for model induction. Mice were housed in an SPF-grade animal room in IVC cages at a temperature of 20-26° C. and a humidity of 40-70% under a 12-hour light-dark cycle. Diet ad libitum, except where fasting is required.
Mice were randomly divided into groups, a number of 8 mice, administration concentration 20 mg/g, administration amount 50 mg, administration route, and frequency: skin smear, BID. The positive control was compound dexamethasone acetate (Dex) cream which is a commercially available product with a Dex content of 0.75 mg/g (999 Piyanping, Sanjiu Pharmaceutical). Dosing started from day 1 (the first day) (the day of model induction) to day 9.
2. Preparation of Test Ointment
Topical preparations are mostly semi-solid dosage forms. The base and solvent of a semi-solid dosage form are generally widely used in medicine and daily chemical products. The excipients which can be added are also the common excipients in the manual of excipients. Therefore, the patent compounds are prepared into corresponding test ointments. The ointment compound was dissolved with diisopropyl adipate to prepare a vaseline-based ointment. In order to improve the stability of the ointment, microcrystalline cellulose was added as an excipient in the formulation. The white vaseline has a melting point of 45-60° C. The solution, white vaseline, and microcrystalline cellulose are thoroughly mixed while the vaseline is in a molten state. After cooling to solidification, it was divided into an aluminum ointment, and the specific weight ratios of base, solvent, and excipients are shown in Table 4.
Dorsal modeling site skin PASI was performed on the experimental animals.
Statistical analysis of PASI scores was performed using Two-way ANOVA. All data were analyzed using GraphPad Prism 8.0 software with a p<0.05 significant difference (*, p<0.05; **, p<0.01).
The PASI score curves of CPD-029, CPD-028, CPD-027, CPD-017, and CPD-002 compared with the model group, excipient group, and Dex cream group are shown in FIGS. 1, 2, 3, 4, and 5, respectively. Among them, the model group was treated with 62.5 mg of 5% IMQ cream applied to the back skin of mice once daily to induce psoriasis, and the excipient group was treated with 15% (w/w) diisopropyl adipate, 80% vaseline, and […].

In the case of `CCS(=O)(=O)N1CC(CC#N)(n2cc(-c3ncnc4c3ccn4C(=O)[C@@H](C)c3ccc(CC(C)C)cc3)cn2)C1` [Ex. 17, (S)-2-(1-(ethylsulfonyl)-3-(4-(7-(2-(4-isobutyl-phenyl)propanoyl)-7H-pyrrolo[2,3-d]pyrimidin-4-yl)-1H-pyrazol-1-yl)azetidin-3-yl)acetonitrile], in series [1], the “Release Rate (%/day)” value is recorded as 2.44 %/day. Besides, the “PASI score: therapeutic effect compared with the excipient group” value in series [2] is “significant therapeutic effect in day 5-day 10”.

For `CNS(=O)(=O)CC1CCC(N(C)c2ncnc3c2ccn3C(=O)[C@@H](C)c2ccc(CC(C)C)cc2)CC1` (stereo partly drawn) [Ex. 27, 1-((1S, 4R)-4-((7-((S)-2-(4-isobutylphenyl)propanoyl)-7H-pyrrolo [2,3-d]pyrimidin-4-yl) (methyl)amino)cyclohexyl)-N-methyl methanesulfonamide], the “Release Rate (%/day)” value in series [1] stood at 7.48 %/day. In addition, the “PASI score: therapeutic effect compared with the excipient group” value in series [2] was “significant therapeutic effect in day 5-day 10”. The like results for `CCC(C(=O)n1ccc2c(N(C)[C@H]3CN(C(=O)CC#N)CC[C@H]3C)ncnc21)c1ccc(N2Cc3ccccc3C2=O)cc1` (stereo partly drawn) [Ex. 29, 3-((3R, 4R)-4-methyl-3-(methyl (7-(2-(4-(1-oxoisoindolin-2-yl)phenyl)butanoyl)-7H-pyrrolo [2,3-d]pyrimidin-4-yl)amino)piperidin-1-yl)-3-oxopropanenitrile] were, in that order, 7.08 %/day and “significant therapeutic effect in day 5-day 10”. In the case of `CC(C)Cc1ccc([C@H](C)C(=O)n2ccc3c(N(C)[C@H]4CN(C(=O)CC#N)CC[C@H]4C)ncnc32)cc1` [Ex. 2, 3-((3R,4R)-3-((7-((S)-2-(4-isobutylphenyl)propanoyl)-7H-pyrrolo[2,3-d]pyrimidin-4-yl) (methyl)amino)-4-methylpiperidin-1-yl)-3-oxopropanenitrile], in series [1], the “Release Rate (%/day)” value amounted to 8.5 %/day. Moreover, the “PASI score: therapeutic effect compared with the excipient group” value in series [2] is listed as “significant therapeutic effect in day 4 day 8”. Turning to `CC(C)Cc1ccc([C@H](C)C(=O)n2ccc3c(-c4cnn([C@H](CC#N)C5CCCC5)c4)ncnc32)cc1` [Ex. 28], the “Release Rate (%/day)” value in series [1] stood at 2.98 %/day. In addition, the “PASI score: therapeutic effect compared with the excipient group” value in series [2] was “significant therapeutic effect in day 5-day 10”. Take `CCS(=O)(=O)N1CC(CC#N)(n2cc(-c3ncnc4c3ccn4COC(=O)c3ccccc3Nc3cccc(Cl)c3C)cn2)C1` [Ex. 81, Methyl (4-(1-(3-(cyanomethyl)-1-(ethylsulfonyl)azetidin-3-yl)-1H-pyrazol-4-yl)-7H-pyrrolo [2,3-d]pyrimidin-7-yl) 2-((3-chloro-2-methylphenyl)amino) benzoate]: the “Release Rate (%/day)” value in series [1] was 0.013 %/day.

The values above are taken from patent US12290519B2, “Anti-inflammatory coupling compound drug, and preparation method therefor and use thereof” (COVAL BIOPHARMA (SHANGHAI) CO., LTD., priority 2021, dated 2025).
